Laboratory results as given in PubChem BioAssay (NCI).
Several values for one entry are separate records, joined by “and”; a condition that tells them apart may be missing. Equal entries are not always repeated.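 Grown in 96-well plates, cells were treated for 48 hours with each compound at five concentrations. Insufficient inhibition: endpoint recorded as highest concentration tested. Abbreviation: GI50, concentration required for 50% inhibition of growth. TGI: total growth inhibition.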

Columns and labels:
Test in all cases: NCI-60 cell line screen, 48 h
[1] = system: 786-0 renal
[2] = system: A498 renal
[3] = system: A549 NSCLC
[4] = system: ACHN renal
[5] = system: BT-549 breast
[6] = system: CAKI-1 renal
[7] = system: CCRF-CEM leukemia
[8] = system: COLO 205 colon
[9] = system: DU-145 prostate
[10] = system: HCC-2998 colon
[11] = system: HCT-116 colon
[12] = system: HCT-15 colon
[13] = system: HL-60(TB) leukemia
[14] = system: HOP-62 NSCLC
[15] = system: HOP-92 NSCLC
[16] = system: HS 578T breast
[17] = system: HT29 colon
[18] = system: IGROV1 ovarian
[19] = system: K-562 leukemia
[20] = system: KM12 colon
[21] = system: LOX IMVI melanoma
[22] = system: M14 melanoma
[23] = system: MALME-3M melanoma
[24] = system: MCF7 breast
[25] = system: MDA-MB-231 breast
[26] = system: MDA-MB-435
[27] = system: MOLT-4 leukemia
[28] = system: NCI-H226 lung
[29] = system: NCI-H460 lung
[30] = system: NCI-H522 lung
[31] = system: NCI/ADR-RES ovarian
[32] = system: OVCAR-3 ovarian
[33] = system: OVCAR-4 ovarian
[34] = system: OVCAR-5 ovarian
[35] = system: OVCAR-8 ovarian
[36] = system: RPMI-8226 leukemia
[37] = system: RXF 393 renal
[38] = system: SF-268 CNS
[39] = system: SF-295 CNS
[40] = system: SF-539 CNS
[41] = system: SK-MEL-2 melanoma
[42] = system: SK-MEL-28 melanoma
[43] = system: SK-MEL-5 melanoma
[44] = system: SK-OV-3 ovarian
[45] = system: SN12C renal
[46] = system: SNB-19 CNS
[47] = system: SNB-75 CNS
[48] = system: SR leukemia
[49] = system: SW-620 colon
[50] = system: T-47D breast
[51] = system: TK-10 renal
[52] = system: U251 CNS
[53] = system: UACC-257 melanoma
[54] = system: UO-31 renal
[55] = system: EKVX NSCLC
[56] = system: NCI-H23 lung
[57] = system: PC-3 prostate
[58] = system: UACC-62 melanoma

O=C(N/N=C/c1ccc(N(CCCl)CCCl)cc1)c1ccc(C(=O)N/N=C/c2ccc(N(CCCl)CCCl)cc2)cc1
GI50 [1]: 2550 nM | TGI [1]: > 100000 nM | GI50 [2]: 15100 nM | TGI [2]: > 100000 nM | GI50 [3]: 3080 nM | TGI [3]: > 100000 nM | GI50 [4]: 6800 nM | TGI [4]: > 100000 nM | GI50 [5]: 2340 nM | TGI [5]: 76500 nM | GI50 [6]: 72300 nM | TGI [6]: > 100000 nM | GI50 [7]: 34.9 nM | TGI [7]: > 100000 nM | GI50 [8]: 15800 nM | TGI [8]: > 100000 nM | GI50 [9]: 341 nM | TGI [9]: > 100000 nM | GI50 [10]: 86800 nM | TGI [10]: > 100000 nM | GI50 [11]: 2480 nM | TGI [11]: > 100000 nM | GI50 [12]: > 100000 nM | TGI [12]: > 100000 nM | TGI [13]: > 100000 nM | GI50 [14]: 653 nM | TGI [14]: > 100000 nM | GI50 [15]: 4980 nM | TGI [15]: 88300 nM | GI50 [16]: 3540 nM | TGI [16]: > 100000 nM | GI50 [17]: 801 nM | TGI [17]: > 100000 nM | GI50 [18]: 20700 nM | TGI [18]: > 100000 nM | GI50 [19]: 20900 nM | TGI [19]: > 100000 nM | GI50 [20]: 15800 nM | TGI [20]: > 100000 nM | GI50 [21]: 1400 nM | TGI [21]: > 100000 nM | GI50 [22]: 3790 nM | TGI [22]: > 100000 nM | GI50 [23]: 11200 nM | TGI [23]: > 100000 nM | GI50 [24]: 380 nM | TGI [24]: > 100000 nM | GI50 [25]: 4730 nM | TGI [25]: > 100000 nM | GI50 [26]: 29800 nM | TGI [26]: > 100000 nM | GI50 [27]: 226 nM | TGI [27]: > 100000 nM | GI50 [28]: 57400 nM | TGI [28]: > 100000 nM | GI50 [29]: 38 nM | TGI [29]: > 100000 nM | GI50 [30]: 465 nM | TGI [30]: > 100000 nM | GI50 [31]: > 100000 nM | TGI [31]: > 100000 nM | GI50 [32]: 19000 nM | TGI [32]: > 100000 nM | GI50 [33]: 47900 nM | TGI [33]: > 100000 nM | GI50 [34]: 71500 nM | TGI [34]: > 100000 nM | GI50 [35]: 12900 nM | TGI [35]: > 100000 nM | GI50 [36]: 1330 nM | TGI [36]: 15100 nM | GI50 [37]: 7630 nM | TGI [37]: > 100000 nM | GI50 [38]: 284 nM | TGI [38]: 27800 nM | GI50 [39]: 213 nM | TGI [39]: > 100000 nM | GI50 [40]: 612 nM | TGI [40]: 47300 nM | GI50 [41]: 2130 nM | TGI [41]: 33300 nM | GI50 [42]: > 100000 nM | TGI [42]: > 100000 nM | GI50 [43]: 18100 nM | TGI [43]: > 100000 nM | GI50 [44]: 10500 nM | TGI [44]: > 100000 nM | GI50 [45]: 232 nM | TGI [45]: > 100000 nM | GI50 [46]: 38600 nM | TGI [46]: > 100000 nM | GI50 [47]: 6740 nM | TGI [47]: > 100000 nM | TGI [48]: > 100000 nM | GI50 [49]: 19500 nM | TGI [49]: > 100000 nM | GI50 [50]: 5540 nM | TGI [50]: > 100000 nM | GI50 [51]: > 100000 nM | TGI [51]: > 100000 nM | GI50 [52]: 346 nM | TGI [52]: 17100 nM | GI50 [53]: > 100000 nM | TGI [53]: > 100000 nM | GI50 [54]: > 100000 nM | TGI [54]: > 100000 nM

C=Cc1cc(OC)c2c(c1)c(=O)oc1c2cc(OC)c2c(O)ccc(C3OC(C(C)O)C(O)C3O)c21 (centres undefined)
GI50 [1]: 3.36 nM | TGI [1]: 19.2 nM | GI50 [2]: 1.26 nM | TGI [2]: 4.68 nM | GI50 [3]: 14.6 nM | TGI [3]: 414 nM | GI50 [5]: 7.69 nM | TGI [5]: 39.1 nM | GI50 [7]: 2.45 nM | TGI [7]: 31.2 nM | GI50 [8]: 11.3 nM | TGI [8]: 102 nM | GI50 [55]: 4.03 nM | TGI [55]: 33.6 nM | GI50 [10]: 13 nM | TGI [10]: 42.2 nM | GI50 [11]: 2.98 nM | TGI [11]: 205 nM | GI50 [13]: 2.16 nM | TGI [13]: 19.7 nM | GI50 [14]: 9.96 nM | TGI [14]: 59.5 nM | GI50 [15]: 12.6 nM | TGI [15]: 300 nM | GI50 [16]: 19.1 nM | TGI [16]: 61.7 nM | GI50 [17]: 6.66 nM | TGI [17]: > 1000 nM | GI50 [18]: 3.4 nM | TGI [18]: 104 nM | GI50 [19]: 3.55 nM | TGI [19]: 126 nM | GI50 [20]: 6.74 nM | TGI [20]: 49.9 nM | GI50 [22]: 11 nM | TGI [22]: 30.2 nM | GI50 [23]: 10.7 nM | TGI [23]: 36.6 nM | GI50 [24]: 0.944 nM | TGI [24]: 321 nM | GI50 [25]: 43.8 nM | TGI [25]: > 1000 nM | GI50 [26]: 14.5 nM | TGI [26]: 33.7 nM | GI50 [28]: 23 nM | TGI [28]: 99 nM | GI50 [56]: 0.928 nM | TGI [56]: 15.1 nM | GI50 [29]: 5.73 nM | TGI [29]: 166 nM | GI50 [30]: 4.75 nM | TGI [30]: 30 nM | GI50 [31]: 12 nM | TGI [31]: 271 nM | GI50 [32]: 15.5 nM | TGI [32]: 42.3 nM | GI50 [33]: 53 nM | TGI [33]: 703 nM | GI50 [34]: 3.09 nM | TGI [34]: 96.9 nM | GI50 [35]: 11.4 nM | TGI [35]: 212 nM | GI50 [57]: 10.5 nM | TGI [57]: 153 nM | GI50 [37]: 1.81 nM | TGI [37]: 3.84 nM | GI50 [38]: 4.56 nM | TGI [38]: 117 nM | GI50 [39]: 3.66 nM | TGI [39]: 43.1 nM | GI50 [40]: 14.6 nM | TGI [40]: 52.7 nM | GI50 [42]: 22.5 nM | TGI [42]: 52.5 nM | GI50 [43]: 7.75 nM | TGI [43]: 55.5 nM | GI50 [44]: 16.5 nM | TGI [44]: 718 nM | GI50 [45]: 22.9 nM | TGI [45]: 172 nM | GI50 [46]: 28 nM | TGI [46]: 246 nM | GI50 [47]: 15.7 nM | TGI [47]: 51.5 nM | GI50 [48]: 0.0483 nM and 0.209 nM | TGI [48]: 4.06 nM | GI50 [49]: 11.7 nM | TGI [49]: 84 nM | GI50 [50]: 8.12 nM | TGI [50]: 80 nM | GI50 [51]: 22.3 nM | TGI [51]: 318 nM | GI50 [53]: 26.9 nM | TGI [53]: 80.5 nM | GI50 [58]: 11.2 nM | TGI [58]: 29.6 nM | GI50 [54]: 2.62 nM | TGI [54]: 39.9 nM
